Source: US20130040944A1, “MGLUR4 ALLOSTERIC POTENTIATORS, COMPOSITIONS, AND METHODS OF TREATING NEUROLOGICAL DYSFUNCTION” (VANDERBILT UNIVERSITY, priority 2009, published 2013)

Molecular target: human mGluR4 (Homo sapiens, UniProt Q14833)
Experiment: potentiation of human mGluR4 in transfected CHO cells, Ca2+-sensitive dye fluorescence, EC20 agonist
Settings: for Emax: CHO, read-out: % Glu Max
[1] = hEC50, human mGluR4 potentiation, unit inferred
[2] = EC50 (nM), potentiation of EC20 agonist response, Table I

Chain of human mGluR4 (Q14833 33-912): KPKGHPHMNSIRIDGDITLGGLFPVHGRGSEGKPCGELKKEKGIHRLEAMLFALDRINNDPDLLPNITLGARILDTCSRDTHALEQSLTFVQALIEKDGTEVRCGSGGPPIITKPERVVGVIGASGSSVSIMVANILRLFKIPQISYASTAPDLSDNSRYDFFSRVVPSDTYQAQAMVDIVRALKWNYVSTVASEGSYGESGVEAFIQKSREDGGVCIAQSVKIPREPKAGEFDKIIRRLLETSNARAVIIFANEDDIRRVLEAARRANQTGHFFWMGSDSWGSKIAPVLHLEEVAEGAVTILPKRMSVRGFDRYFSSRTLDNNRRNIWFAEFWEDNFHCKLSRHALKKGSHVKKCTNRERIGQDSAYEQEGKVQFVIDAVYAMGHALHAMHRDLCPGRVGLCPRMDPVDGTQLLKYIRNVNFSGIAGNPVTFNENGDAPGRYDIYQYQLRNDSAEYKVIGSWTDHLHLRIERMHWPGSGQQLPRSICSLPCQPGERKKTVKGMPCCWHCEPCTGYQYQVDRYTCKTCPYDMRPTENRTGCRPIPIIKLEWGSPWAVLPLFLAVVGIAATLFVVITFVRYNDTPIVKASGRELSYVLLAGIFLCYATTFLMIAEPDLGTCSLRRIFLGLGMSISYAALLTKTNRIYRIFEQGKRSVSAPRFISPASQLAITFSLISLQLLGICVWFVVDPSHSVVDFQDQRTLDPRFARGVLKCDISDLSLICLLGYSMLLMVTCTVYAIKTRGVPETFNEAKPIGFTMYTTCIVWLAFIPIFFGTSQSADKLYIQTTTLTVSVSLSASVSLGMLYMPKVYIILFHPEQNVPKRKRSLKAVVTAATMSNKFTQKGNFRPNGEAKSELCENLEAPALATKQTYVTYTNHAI

EC50 [1] [nM] | Emax [%] | EC50 [2] [nM] | SMILES
41.1 | – | – | O=C(Nc1ccn(S(=O)(=O)c2ccc3c(c2)OCCCO3)c1)c1ccccn1 [Example 148, N-(1-((3,4-dihydro-2H-benzo[b][1,4]dioxepin-7-yl)sulfonyl)-1H-pyrrol-3-yl)picolinamide]
8320 | – | – | Cc1noc(C)c1S(=O)(=O)n1ccc(NC(=O)c2ccccn2)c1 [Example 141, N-(1-((3,5-dimethylisoxazol-4-yl)sulfonyl)-1H-pyrrol-3-yl)picolinamide]
132 | – | – | O=C(Nc1ccn(S(=O)(=O)Cc2ccc(F)cc2Cl)c1)c1nccs1 [Example 60, N-(1-((2-chloro-4-fluorobenzyl)sulfonyl)-1H-pyrrol-3-yl)thiazole-2-carboxamide]
88.7 | – | – | Cc1ccc(S(=O)(=O)n2ccc(NC(=O)c3ccccn3)c2)s1 [Example 135, N-(1-((5-methylthiophen-2-yl)sulfonyl)-1H-pyrrol-3-yl)picolinamide]
701 | – | – | COc1ccc(S(=O)(=O)n2ccc(NC(=O)c3ccco3)c2)cc1 [Example 164, N-(1-((4-methoxyphenyl)sulfonyl)-1H-pyrrol-3-yl)furan-2-carboxamide]
2860 | – | – | O=C(Nc1ccn(S(=O)(=O)c2ccc(Cl)cn2)c1)c1ccco1 [Example 167, N-(1-((5-chloropyridin-2-yl)sulfonyl)-1H-pyrrol-3-yl)furan-2-carboxamide]
– | 275 | 562 | O=C(Nc1ccn(S(=O)(=O)Cc2ccccc2)c1)c1ccccn1 [Example 2, N-(1-(benzylsulfonyl)-1H-pyrrol-3-yl)picolinamide]
21100 | – | – | Cc1cc(S(=O)(=O)n2ccc(NC(=O)c3ccccn3)c2)c(Cl)cc1Cl [Example 108, N-(1-((2,4-dichloro-5-methylphenyl)sulfonyl)-1H-pyrrol-3-yl)picolinamide]
4800 | – | – | O=C(Nc1ccn(S(=O)(=O)Cc2cccc(F)c2)c1)c1nccs1 [Example 84, N-(1-((3-fluorobenzyl)sulfonyl)-1H-pyrrol-3-yl)thiazole-2-carboxamide]
– | 39 | > 20000 | COc1cccc(C(=O)Nc2ccn(S(=O)(=O)Cc3ccccc3)c2)c1 [Example 3, N-(1-(benzylsulfonyl)-1H-pyrrol-3-yl)-3-methoxybenzamide]
6130 | – | – | Cc1cccc(C)c1S(=O)(=O)n1ccc(NC(=O)c2ccco2)c1 [Example 67, N-(1-((2,6-dimethylphenyl)sulfonyl)-1H-pyrrol-3-yl)furan-2-carboxamide]
3690 | – | – | O=C(Nc1ccn(S(=O)(=O)Cc2ccc(F)cc2F)c1)c1ccco1 [Example 56, N-(1-((2,4-difluorobenzyl)sulfonyl)-1H-pyrrol-3-yl)furan-2-carboxamide]
281 | – | – | Cc1ccc(F)c(S(=O)(=O)n2ccc(NC(=O)c3ccccn3)c2)c1 [Example 89, N-(1-((2-fluoro-5-methylphenyl)sulfonyl)-1H-pyrrol-3-yl)picolinamide]
988 | – | – | Cc1cccc(Cl)c1S(=O)(=O)n1ccc(NC(=O)c2ccccn2)c1 [Example 76, N-(1-((2-chloro-6-methylphenyl)sulfonyl)-1H-pyrrol-3-yl)picolinamide]
570 | – | – | O=C(Nc1ccn(S(=O)(=O)c2ccccc2OC(F)F)c1)c1ccccn1 [Example 73, N-(1-((2-(difluoromethoxy)phenyl)sulfonyl)-1H-pyrrol-3-yl)picolinamide]
2120 | – | – | COc1ccc(S(=O)(=O)n2ccc(NC(=O)c3ccco3)c2)cn1 [Example 168, N-(1-((6-methoxypyridin-3-yl)sulfonyl)-1H-pyrrol-3-yl)furan-2-carboxamide]
– | 57 | > 20000 | O=C(Nc1ccn(S(=O)(=O)Cc2ccccc2)c1)c1ccncn1 [Example 45, N-(1-(benzylsulfonyl)-1H-pyrrol-3-yl)pyrimidine-4-carboxamide]
3680 | – | – | Cc1ccc(S(=O)(=O)c2cc(NC(=O)c3ccccn3)cn2C)cc1 [Example 157, N-(1-methyl-5-tosyl-1H-pyrrol-3-yl)picolinamide]
– | 58 | > 10000 | O=C(Nc1ccn(S(=O)(=O)c2ccc3ccccc3c2)c1)c1ccccn1 [Example 36]
84.3 | – | – | O=C(Nc1ccn(S(=O)(=O)c2ccc3occc3c2)c1)c1ccccn1 [Example 150, N-(1-(benzofuran-5-ylsulfonyl)-1H-pyrrol-3-yl)picolinamide]
285 | – | – | COC(=O)c1ccc(S(=O)(=O)n2ccc(NC(=O)c3ccccn3)c2)cc1 [Example 153, Methyl 4-((3-(picolinamido)-1H-pyrrol-1-yl)sulfonyl)benzoate]
1210 | – | – | O=C(Nc1ccn(S(=O)(=O)c2ccc(CO)cc2)c1)c1ccccn1 [Example 161, N-(1-((4-(hydroxymethyl)phenyl)sulfonyl)-1H-pyrrol-3-yl)picolinamide]
– | 90 | 9540 | Cc1cccc(C(=O)Nc2ccn(S(=O)(=O)Cc3ccccc3)c2)n1 [Example 43, N-(1-(benzylsulfonyl)-1H-pyrrol-3-yl)-6-methylpicolinamide]
2680 | – | – | O=C(Nc1ccn(S(=O)(=O)c2ccccc2)c1)c1nccs1 [Example 50, N-(1-(phenylsulfonyl)-1H-pyrrol-3-yl)thiazole-2-carboxamide]

EC50 [1] [nM] | Emax [%] | EC50 [2] [nM] | SMILES
466 | – | – | O=C(Nc1ccn(S(=O)(=O)c2ccc(Cl)c(Cl)c2)c1)c1ccccn1 [Example 100, N-(1-((3,4-dichlorophenyl)sulfonyl)-1H-pyrrol-3-yl)picolinamide]
– | 175 | 4380 | O=C(Nc1ccn(S(=O)(=O)Cc2ccccc2)c1)c1nccs1 [Example 44, N-(1-(benzylsulfonyl)-1H-pyrrol-3-yl)thiazole-2-carboxamide]
1490 | – | – | O=C(Nc1ccn(S(=O)(=O)c2ccoc2)c1)c1ccccn1 [Example 125, N-(1-(furan-3-ylsulfonyl)-1H-pyrrol-3-yl)picolinamide]
1910 | – | – | O=C(Nc1ccn(S(=O)(=O)Cc2ccc(F)cc2F)c1)c1nccs1 [Example 55, N-(1-((2,4-difluorobenzyl)sulfonyl)-1H-pyrrol-3-yl)thiazole-2-carboxamide]
426 | – | – | O=C(Nc1ccn(S(=O)(=O)C(F)c2ccccc2F)c1)c1ccccn1 (stereo not drawn) [Example 105, N-(1-((fluoro(2-fluorophenyl)methyl)sulfonyl)-1H-pyrrol-3-yl)picolinamide]
320 | – | – | O=C(Nc1ccn(S(=O)(=O)Cc2ccc(F)cc2Cl)c1)c1ccco1 [Example 61, N-(1-((2-chloro-4-fluorobenzyl)sulfonyl)-1H-pyrrol-3-yl)furan-2-carboxamide]
686 | – | – | O=C(Nc1ccn(S(=O)(=O)c2ccco2)c1)c1ccccn1 [Example 123, N-(1-(furan-2-ylsulfonyl)-1H-pyrrol-3-yl)picolinamide]
767 | – | – | Cc1cccc(S(=O)(=O)n2ccc(NC(=O)c3nccs3)c2)c1 [Example 53, N-(1-(m-tolylsulfonyl)-1H-pyrrol-3-yl)thiazole-2-carboxamide]
107 | – | – | COc1ccc(S(=O)(=O)n2ccc(NC(=O)c3ccccn3)c2)cc1 [Example 129, N-(1-((4-methoxyphenyl)sulfonyl)-1H-pyrrol-3-yl)picolinamide]
253 | – | – | O=C(Nc1ccn(S(=O)(=O)c2cnc3ccccc3c2)c1)c1ccccn1 [Example 136, N-(1-(quinolin-3-ylsulfonyl)-1H-pyrrol-3-yl)picolinamide]
– | 116 | 174 | O=C(Nc1ccn(S(=O)(=O)c2ccccc2F)c1)c1ccccn1 [Example 8]
57.6 | – | – | O=C(Nc1ccn(S(=O)(=O)c2cc(Cl)ccc2Cl)c1)c1ccccn1 [Example 78, N-(1-((2,5-dichlorophenyl)sulfonyl)-1H-pyrrol-3-yl)picolinamide]
144 | – | – | CN1CCOc2cc(S(=O)(=O)n3ccc(NC(=O)c4ccccn4)c3)ccc21 [Example 146, N-(1-((4-methyl-3,4-dihydro-2H-benzo[b][1,4]oxazin-7-yl)sulfonyl)-1H-pyrrol-3-yl)picolinamide]
226 | – | – | O=C(Nc1ccn(S(=O)(=O)c2cc(F)c(F)cc2F)c1)c1ccccn1 [Example 110, N-(1-((2,4,5-trifluorophenyl)sulfonyl)-1H-pyrrol-3-yl)picolinamide]
931 | – | – | Cn1ccc(S(=O)(=O)n2ccc(NC(=O)c3ccccn3)c2)n1 [Example 159, N-(1-((1-methyl-1H-pyrazol-3-yl)sulfonyl)-1H-pyrrol-3-yl)picolinamide]
162 | – | – | O=C(Nc1ccn(S(=O)(=O)c2ccc(Cl)cn2)c1)c1ccccn1 [Example 121, N-(1-((5-chloropyridin-2-yl)sulfonyl)-1H-pyrrol-3-yl)picolinamide]
110 | – | – | O=C(Nc1ccn(S(=O)(=O)c2ccc3c(c2)OCO3)c1)c1ccccn1 [Example 133, N-(1-(benzo[d][1,3]dioxol-5-ylsulfonyl)-1H-pyrrol-3-yl)picolinamide]
2760 | – | – | O=C(Nc1ccn(S(=O)(=O)Cc2ccccc2)c1)c1nccs1 [Example 63, N-(1-(benzylsulfonyl)-1H-pyrrol-3-yl)thiazole-2-carboxamide]
2300 | – | – | CC(c1ccccc1)S(=O)(=O)n1ccc(NC(=O)c2ccccn2)c1 (stereo not drawn) [Example 96, N-(1-((1-phenylethyl)sulfonyl)-1H-pyrrol-3-yl)picolinamide]
389 | – | – | O=C(Nc1ccn(S(=O)(=O)c2ccc(Cl)c(F)c2)c1)c1ccccn1 [Example 103, N-(1-((4-chloro-3-fluorophenyl)sulfonyl)-1H-pyrrol-3-yl)picolinamide]
880 | – | – | Cc1ccc(S(=O)(=O)n2ccc(NC(=O)c3ccccn3)c2)c(C)c1 [Example 74, N-(1-((2,4-dimethylphenyl)sulfonyl)-1H-pyrrol-3-yl)picolinamide]
7220 | – | – | O=C(Nc1ccn(S(=O)(=O)Cc2ccccc2Cl)c1)c1ccc(Cl)cn1 [Example 86, 5-chloro-N-(1-((2-chlorobenzyl)sulfonyl)-1H-pyrrol-3-yl)picolinamide]
1490 | – | – | O=C(Nc1ccn(S(=O)(=O)c2ccccn2)c1)c1ccccn1 [Example 160, N-(1-(pyridin-2-ylsulfonyl)-1H-pyrrol-3-yl)picolinamide]
